Drawing on PubChem BioAssay AID504489 (Sanford-Burnham Center for Chemical Genomics, 2011), this text covers IC50 for 9 compounds.

Each structure is given as a SMILES string. Active and inactive are the calls of the source.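 How the source made its calls: active means IC50 at or below 20 µM; inactive means the rest.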

For this experiment, the system named is 697 B-cell NF-kB luciferase, PMA/ionomycin, luminescence 16 h. The experiment in a line: inhibition of PMA/ionomycin-stimulated NF-kB luciferase reporter, SAR follow-up, B- and T-cell screen hits, 697 cells, luminescence (AID 504489). On the technique in general: In a reporter assay the amount or activity of a reporter protein is the signal.
In the case of `COc1cc(N)c2ncccc2c1`, the IC50 – broadly, the concentration that inhibits the measured activity by half – is > 79 µM (inactive). For `Cc1ccc(S(=O)(=O)Nc2cccc3cccnc23)cc1` the value was 2.21 µM; for `COc1cc(NS(=O)(=O)c2ccc(C)cc2)c2ncccc2c1`, 2.58 µM; for `Cc1ccc2cccc(N)c2n1`, > 79 µM (inactive). With `COc1cc(NS(=O)(=O)c2ccccc2)c2ncccc2c1`, the concentration for half-maximal inhibition (IC50) was 1.29 µM. Under `Nc1cccc2cccnc12` stands > 79 µM (inactive); under `O=S(=O)(Nc1cccc2cccnc12)c1ccccc1`, 1.4 µM. As to `Cc1ccc(S(=O)(=O)Nc2cccc3ccc(C)nc23)cc1`, the half-inhibitory concentration (IC50) was 2.74 µM. For `Cc1ccc2cccc(NS(=O)(=O)c3ccccc3)c2n1` the value was > 79 µM (inactive).
